Laboratory results: US10590116B2, “3-indolyl furanoids as inhibitors of matrix metalloproteinase-9 for prevention of gastric ulcer and other inflammatory diseases” (Council of Scientific & Industrial Research, priority 2017, dated 2020)
Several values for one entry are separate records, joined by “and”; a condition that tells them apart may be missing. Identical values can stand only once.

Columns and labels:
[1] = test system: indomethacin-induced acute gastric ulcers; assay: Protection studies of gastric ulceration in vivo (indomethacin-induced acute gastric ulcer, ulcer index); set-up: species or system Balb/c mice; details: for inhibition in ulcer index: 4 h
Protocol: Animal experiments were carried out using Balb/c mice (20-25 g). Animals were anesthetized with ketamine (12 mg/kg b.w.) prior to cervical dislocation. Control and experimental animals were fasted for 6 hr with free access to water.
Balb/c mice (20-25 g) bred in-house with free access to food and water was used for all experiments. Experiments were designed to minimize animal suffering and to use the minimum number associated with valid statistical evaluation. Animals were anesthetized with ketamine (12 mg/kg b.w.) followed by cervical dislocation. Animal experiments were carried out following the guidelines of animal ethics committee of the institute. Control and experimental animals were fasted for 6 h with free access to water.
Before ulcer induction, animals of both control and experimental groups were kept separately in standard controlled conditions. Acute gastric ulcers were induced by oral administration of indomethacin at a dose of 80 mg/kg b.w. The control group received the vehicle only (olive oil), whereas the experimental group received indomethacin for gastric ulceration. After 4 h, the animals were sacrificed and gastric lesions in the fundic stomach were scored and expressed as obtained by counting the number of red bands/dots as follows: 0=no pathology; 1=a small pinhead ulcer spot; and 2-5=a band like lesion of 2-5 mm length. Total score become ˜50 when ulcer is severe. The sum of the total scores as divided by the number of animals was expressed as the mean ulcer index. Formulations were administered orally 30 min prior to indomethacin treatment to check the gastroprotective effect. Among all the chemical compositions of 3-indolyl furanoids synthesized (table 1), compounds 1, 2, 5, 8, 9 and 12 were tested for prevention studies against gastric inflammation in vivo.

[2] = biological target: T1, purified MMP-9 (Homo sapiens, UniProt P14780); assay: IC50 on purified MMP-9 using gelatin zymography; format: biochemical, human (IPF patients); details: purified MMP-9, gelatin zymography, three independent experiments
T1 construct: from tissue; host or cells: bronchoalveolar lavage fluid of IPF patients
Protocol: MMP-9 was purified from the bronchoalveolar lavage fluid (BALF) of idiopathic pulmonary fibrosis (IPF) patients as these fluids contain enormous amounts of MMP-9. All purification procedures were carried out at 4° C. Briefly, BALF containing protease inhibitor cocktail (EDTA Free) were centrifuged at 12,000 g for 15 min, and the supernatant was collected and processed for protein purification. […] The enzyme was eluted with 7% dimethyl sulfoxide diluted in the same buffer, and the fractions containing enzyme protein as determined by absorbance at 280 nm were pooled and immediately dialyzed against equilibrating buffer at 4° C. They were then concentrated using Amicon Ultra-15 centrifugal filter devices and protein concentration was determined by Bradford assay. These samples were screened to confirm the presence of MMP-9 and absence of MMP-2 by gelatin zymography and stored at −70° C.
The inventors address the IC50 value of compound 5 towards MMP-9 binding. To evaluate the IC50 value of compound 5 on MMP-9 activity, equal amount of purified MMP-9 was incubated with various concentrations of compound 5 followed by electrophoresis in 8% SDS-PAGE containing 1 mg/mL gelatin under nonreducing conditions.

[3] = test system: apoptosis of gastric mucosa; assay: TUNEL assay of gastric tissue sections; format: in vivo; details: indomethacin ulcerated mice
From the text: To understand the fine information about the physical condition (the level of damage and/or intactness) of cells tissues under observation, different tissue samples were fixed in 10% formalin and embedded in paraffin. Tissue sections were deparaffinized with xylene and rehydrated with descending alcohol series. The sections were cut using microtome, and stained with hematoxylin and eosin, or subjected to Terminal deoxynucleotidyl transferase-mediated dUTP Nick End Labeling (TUNEL) assay by using a in situ apoptosis detection kit. Fixation, permeabilization, and staining were carried out in exact parallel to ensure comparative significance among normal, ulcerated and compound 5 treated groups. […] Images at 10× and 40× magnification were captured using Camedia software (E-20P 5.0 Megapixel) and processed under Adobe Photoshop version 7.0 (FIG. 1B).
Tissue sections were stained with hematoxylin and eosin stain. Fixation, permeabilization, and staining were carried out in parallel in normal, ulcerated and compound 5 treated groups to ensure comparative significance among different treatment. TUNEL assay is used for detection and quantification of apoptosis in gastric tissues, based on labelling of DNA strand breaks. Terminal deoxynucleotidyl transferase-mediated dUTP Nick End Labeling (TUNEL) assay was performed by using an in situ apoptosis detection kit. […]

T1 sequence (P14780 94-707): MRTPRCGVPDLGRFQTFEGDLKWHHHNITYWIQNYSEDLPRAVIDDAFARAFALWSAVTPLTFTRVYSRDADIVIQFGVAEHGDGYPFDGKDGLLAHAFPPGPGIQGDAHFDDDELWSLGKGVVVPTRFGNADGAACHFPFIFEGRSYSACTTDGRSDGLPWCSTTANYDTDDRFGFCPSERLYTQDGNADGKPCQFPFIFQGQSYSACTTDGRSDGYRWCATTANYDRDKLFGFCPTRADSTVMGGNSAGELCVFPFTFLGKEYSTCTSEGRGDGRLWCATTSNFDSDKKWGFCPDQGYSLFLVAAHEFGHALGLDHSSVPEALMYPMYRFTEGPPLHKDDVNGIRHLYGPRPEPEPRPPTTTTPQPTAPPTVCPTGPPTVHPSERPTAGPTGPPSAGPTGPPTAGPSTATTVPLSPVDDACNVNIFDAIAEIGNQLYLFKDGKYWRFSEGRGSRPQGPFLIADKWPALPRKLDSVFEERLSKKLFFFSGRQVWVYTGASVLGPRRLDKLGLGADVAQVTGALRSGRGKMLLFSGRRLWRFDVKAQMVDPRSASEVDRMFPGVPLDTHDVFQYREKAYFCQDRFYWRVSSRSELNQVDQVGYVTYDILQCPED

COc1cccc2[nH]cc(-c3cc(-c4ccccc4)oc3-c3ccccc3)c12 [compound 5, 4-methoxy-3-(2,5-diphenylfuran-3-yl)-1H-indole]
inhibition in ulcer index ([1]; 10 mg/kg bw oral prior to indomethacin 80 mg/kg): 40% | inhibition in ulcer index ([1]; 25 mg/kg bw oral prior to indomethacin 80 mg/kg): 80% | inhibition in vivo at 50 mg/kg ([1]; Mus musculus, 50 mg/kg body weight oral in olive oil, indomethacin 80 mg/kg, scored after 4 h, Balb/c mice): 95% | IC50 [2]: ~50 µM and 50 µM | apoptosis of gastric mucosa (TUNEL) [3]: suppression of apoptosis
